We go through three compounds from patent publication US10806819B2, “Wound coverings comprising vitamin d and related methods” (Marshall University Research Corporation, priority 2015, dated 2020).

One series concerns Staphylococcus aureus. The conditions noted are these: cited from earlier work.
The next series deals with HaCat cells. The experiment in a line: HaCat cell proliferation / cytotoxicity (cell counting). In kind it is cell-based, human. As to conditions: 5.0×10^−6 M free drug. The method, then: (§1) This Example describes cell proliferation of cells treated with the PCL fibers produced in Example 1. Human keratinocyte cell line (HaCat) and monocyte cell line (U937) were cultured in D-MEM with 10% FCS and RPMI-1640 media with 10% FCS respectively. The cultures were maintained at 37° C. under 95% air and 5% CO2 until reaching 80% confluence. The subconfluent HaCat cells were dissociated with a 0.05% trypsin-EDTA and re-suspended in a fresh complete media. U937 cells were precipitated by 300 g centrifugation and then re-suspended in a fresh complete media. The single HaCat cell suspensions were created by gently pipetting up and down HaCat cell aggregates and then placed in 6-cm culture dishes and incubated for 1 day. At the beginning of experiments, 5.0×10^5, 2.0×10^5 and 1.0×10^5 cells were seeded in the culture dishes for 1-day, 3-day, and 5-day treatments, respectively. The media was then replaced by D-MEM containing 0.52% DMSO, D-MEM containing 5.0×10^−7 M 25(OH)D, D-MEM containing 5.0×10^−6 M 25(OH)D, D-MEM containing 1 mg/ml pristine PCL fibers, and D-MEM containing 1 mg/ml 25(OH)D loaded PCL fibers and incubated for 1, 3, and 5 days. Of note, 5.0×10^−6 M 25(OH)D was chosen as a control due to cytotoxicity in OKF6-TERT2 cells. […]
(§2) The HaCat cells and U937 cells were seeded in 24-well plates. […] The cell density was calculated based on the cell counting (FIGS. 5A-5B). […]

The test system of a further series is U937 cells. The experiment in a line: U937 cell proliferation / cytotoxicity (cell counting). In kind it is cell-based, human. The conditions noted are these: 5.0×10^−6 M, 3 days and 5 days. The method, then:
as §1, §2

The subject of series [1] is cathelicidin (hCAP18) in HaCat cells. The experiment in a line: immunofluorescence assay of cathelicidin (hCAP18) expression in HaCat cells. Format: cell-based, human. The method, then: (§3) This Example describes an immunofluorescence assay performed on cells treated with the PCL produced in Example 1. The cells were treated with different formulations as discussed above, the cells were rinsed with PBS twice and fixed with 4% paraformaldehyde for 30 min at 37° C. followed by incubation with TNBS (0.05% Triton-X100, 2% FBS in pH 7.2 PBS) for 30 minutes at room temperature prior to immunostaining. Goat anti-cathelicidin polyclonal antibody (1:200) was incubated to label intercellular cathelicidin at 4° C. overnight. Both the full length and cleaved C terminus of cathelicidin (hCAP18) were labeled. Mouse anti-goat IgG-FITC antibody (1:100) was incubated for 2 h after removal of primary antibody and washed with TNBS three times. Then, the secondary antibody was removed and washed by TNBS three times. Nuclei were counterstained with 10 μM DAPI in blue. Images were taken with a digital camera (Carl Zeiss). The exposure time for taking images for HaCat and U937 cells was fixed at 400 ms and 40 ms, respectively.

The subject of series [2] is cathelicidin (hCAP18) in U937 cells. As to the kind of experiment: immunofluorescence assay of cathelicidin (hCAP18) expression in U937 cells. In kind it is cell-based, human. The method, then: as §3
The test system of series [3] is LL-37 production in HaCat cells. As to the kind of experiment: LL-37 ELISA of HaCat cell lysate. Format: cell-based, human. As to conditions: 5.0×10^−7 M free drug. The method, then: (§4) This Example describes the production of LL-37 in cells treated with the PCL fibers produced in Example 1. Single cell suspensions of both HaCat cells (human keratinocyte cell line) and U937 cells (leukemic monocyte lymphoma cell line) were seeded in 6-cm culture dishes. 5.0×10^5, 2.0×10^5 and 1.0×10^5 cells were seeded in the culture dishes for 1-day, 3-day, and 5-day treatments, respectively. Cells were treated with different formulations as described above and harvested at each time point. The subconfluent HaCat cells and U937 cell suspensions were washed with PBS twice. Subsequently, 300 μl of the M-PER mammalian protein extraction reagent with 0.1% protease inhibitor cocktail was added to […]. They were agitated for 20 min and lysate was collected and transferred to a 1.5-ml microcentrifuge tube. The samples were centrifuged at 14000×g for 40 min at 4° C. to pelletize the cell debris and the supernatant was transferred to a new tube for analysis. Total protein concentration was tested by MicroBCA kit before ELISA test. Concentrations of LL-37 in cell lysate were determined by LL-37 ELISA assay kit based on the manufacturer's instructions.
In general terms: In an ELISA, binding on a coated surface is turned into a signal by an enzyme label.

Series [4] relates to LL-37 production in U937 cells. The experiment in a line: LL-37 ELISA of U937 cell lysate. In kind it is cell-based, human. As to conditions: for amount of LL-37 produced from U937 cells: 5.0×10^−6 M. The procedure: as §4
The next series concerns Pseudomonas aeruginosa. As to the kind of experiment: antibacterial activity of U937 lysis solutions (CFU count on agar plates). In kind it is cell-based. The conditions noted are these: U937 treated with 5.0×10^−6 M for 5 days. The procedure:
FIG. 8 is a graph showing the quantification of Pseudomonas aeruginosa CFUs treated by U937 lysis solutions. U937 were incubated in the presence of 1 mg/ml pristine PCL fibers, 0.52% DMSO, 5.0×10^−7 M 25(OH)D, 5.0×10^−6 M 25(OH)D, and 1 mg/ml plasma treated and 25(OH)D loaded PCL fibers (containing 5.0×10^−7M 25(OH)D equivalent amount based on the calculations from release profiles in the first 3 days) for 1, 3 and 5 days. Bacteria were incubated with cell lysis solutions and CFUs were counted on agar plates. Each data point represents arithmetic mean±SD values from three samples. Statistical significance was evaluated by student's t-test (*p<0.05).
This Example describes the antibacterial activities in cells treated with the PCL fibers produced in Example 1. Briefly, bacteria were incubated with cell lysis solutions and CFUs were counted on agar plates.

The subject of a further series is OKF6-TERT2. The conditions noted are these: recent study; cited from earlier work.
The test system of another series is cell growth. As to conditions: direct administration; cited from earlier work.

For the compound “LL-37: human cathelicidin, small cationic antimicrobial peptide derived from hCAP-18”, the “EC50 against Staphylococcus aureus” value in the series with Staphylococcus aureus was 1.27 µg/mL.

With `C=C1CC[C@H](O)C/C1=C/C=C1\CCC[C@]2(C)[C@@H]([C@H](C)CCCC(C)(C)O)CC[C@@H]12` [25(OH)D, 25-hydroxyvitamin D3], the “cytotoxic effects on HaCat cells” value in the series with HaCat cells was “marginal cytotoxic effects”. Further, the “proliferation rate of U937 cells” value in the series on U937 cells is recorded as “reduced dramatically”. Besides, the “hCAP 18 staining in HaCat cells” value in [1] (5.0×10^−6 M, 3 days) is “positive green fluorescent staining”. In series [1] (5.0×10^−7 M), the “hCAP 18 expression in HaCat cells” value is “did not demonstrate hCAP 18 expression”. The “change of fluorescence intensity (hCAP 18) of U937 cells” value in series [2] (5.0×10^−6 M, day 1 to day 3) is recorded as “increased”. Besides, the “change of fluorescence intensity (expression level of hCAP 18) of U937 cells” value in series [2] (5.0×10^−6 M, day 3 to day 5) is “decreased”. Besides, in series [2] (5.0×10^−6 M, one day), the “hCAP 18 expression in U937 cells” value is “exhibited expression of hCAP 18”. For the same compound, the “cathelicidin staining in U937 cells” value in series [2] (5.0×10^−7 M, each time point) is “negative staining”. For the same compound, the “production of hCAP 18 and LL-37 in HaCat cells” value in series [3] is on record as “failed to induce production of significant amount”. The “amount of LL-37 produced from U937 cells” value in [4] (3 days) is listed as “increased”. For the same compound, the “amount of LL-37 produced from U937 cells” value in [4] (5 days) is recorded as “decreased sharply”. Moreover, the “production of hCAP 18 and LL-37 in U937 cells” value in series [4] (5.0×10^−7 M free drug) is “failed to induce production of significant amount”. Moreover, the “numbers of CFUs after incubation with U937 lysis solutions, versus other treatment groups” value in the series on Pseudomonas aeruginosa is listed as “significantly lower numbers of CFUs”. Besides, in the series on OKF6-TERT2, the “concentration toxic to OKF6-TERT2” value was not below 5 µM and the “concentration with little cytotoxicity in OKF6-TERT2” value is on record as “lower than 5.0×10^−7 M”.

`C=C1/C(=C\C=C2/CCC[C@]3(C)[C@@H]([C@H](C)CCCC(C)(C)O)CC[C@@H]23)C[C@@H](O)C[C@@H]1O` [1,25-hydroxyvitamin D3]: in the series on cell growth, the “concentration generating cytotoxicity and inhibition of cell growth” value is given as 10^−7 M.
